The record followed here is publication PMC6766655, “AhR–ROR-γt complex is a therapeutic target for MAP4K3/GLK^highIL-17A^high subpopulation of systemic lupus erythematosus” (The FASEB Journal, 2019).

Experiment [1] relates to GLK-induced NF-κB luciferase activity of CHO-GLK-Luc cells. Kind of experiment: Cell-based NF-κB luciferase reporter assay in GLK-transfected CHO-K1 cells. On the set-up: species or system Chinese hamster. As to conditions: stable GLK-transfected CHO-K1 cells; Fig. 3A. Here is the method:
Cell-based high‐throughput screening was conducted against a representative library of 100,000 molecules at ∼10 μM. The Chinese hamster ovary CHO-K1 (ATCC, CCL-61) cells expressing GLK and NF-κB luciferase (Luc) reporter were used. The reaction volume was 5 μl (500 cells) per well in 1536‐well plates. There was no positive control. This high‐throughput screening campaign was successful, with a determined Z' factor of 0.57 ∼ 0.60. […] At the end, 1392 compounds were identified for high inhibition (>80%) of the GLK-induced NF-κB luciferase activity of CHO‐GLK‐Luc cells. These 1392 compounds were further screened for the inhibition of GLK kinase activity by in vitro kinase assays using the kinase-dead PKC-θ protein as the substrate. From the screening, 2 potential small-molecule GLK inhibitors [half maximal inhibitory concentration (IC50) < 10 μM] were identified.
Figure 3 Verteporfin (C1) blocks the AhR–ROR-γt complex in human autoimmune T cells. A) Luciferase activity of NF-κB–driven reporter assays in stable GLK-transfected CHO-K1 cells that were treated with or without C1 under the indicated concentration. The fold changes are presented relative to the value of vector control. […] D) Quantification of the PLA signals shown in panel C. *P < 0.05, ***P < 0.001 (2-tailed Student’s t test).

Another experiment deals with murine primary T cells. Kind of experiment: ELISA of cytokines in supernatants of anti-CD3/CD28-stimulated murine primary T cells. It counts as cell-based. The conditions noted are these: anti-CD3 plus anti-CD28. The source says:
(§1) Primary human T cells were freshly isolated and negatively selected from the PBLs of clinical samples using a cocktail of biotin-conjugated anti-CD19, anti-CD14, and anti-CD11b antibodies (BioLegend) on a magnetic cell separation column (Miltenyi Biotec, Bergisch Gladbach, Germany) ([26]). In addition, primary murine T cells were negatively selected from the spleens of mice using magnetically coupled antibodies against CD11b, B220, CD49b, CD235, and TER-119 (Miltenyi Biotec) ([18]).
(§2) We further studied whether IL-17A production is abolished by verteporfin in human and murine T cells. We first tested the inhibitory effect of verteporfin in murine T cells stimulated with T-cell receptor (TCR) signaling (anti-CD3 plus anti-CD28 antibodies). […] This reduction is likely due to the inhibition of NF-κB activation ([18]) by the verteporfin treatment. This notion is supported by our published results that TCR-induced TNF-α and IFN-γ levels in T cells are inhibited by IKK-β conditional knockout ([18]). Next, we studied whether verteporfin attenuates IL-17A production using human peripheral blood T cells with stimulation. The levels of T-cell–secreted IL-17A in unstimulated T cells from patients with SLE and RA were enhanced compared with those from healthy controls (Fig. 5B). […] GLK overexpression in T cells selectively induces IL-17A production in Lck-GLK Tg mice ([18]). […] The inhibition of the production of other cytokines by the high-dose but not low-dose verteporfin treatment may be due to a requirement of higher concentration of verteporfin for an efficient inhibition of NF-κB activation.
(§3) Figure 5 Verteporfin (C1) blocks IL-17 production of human T cells. A) ELISA of various cytokines in supernatants of murine primary T cells stimulated with anti-CD3 or CD28 and cotreated with C1 (5 or 10 μM) for 3 d. Means ± SD are shown; n = 3/group. B) ELISA of various cytokines in supernatants of human T cells. T cells were stimulated with anti-CD3 or CD28 and cotreated with C1 (1 or 5 μM) for 3 d. HC, healthy control; N.S., not significant. Means ± SD are shown. *P < 0.05, **P < 0.01, ***P < 0.001 (2-tailed Student’s t test).

The test system of experiment [2] is human peripheral blood T cells. In words: ELISA of cytokines in supernatants of anti-CD3/CD28-stimulated human peripheral blood T cells. It counts as cell-based. The conditions noted are these: for inhibition of IL-17A: 1 μM.
Description: as §1, §2, §3
Supplementary Figure 6. Inhibition of IL-17A overproduction by verteporfin in inflammatory T cells from SLE or RA patients. (A) ELISA of various cytokines in supernatants of T cells from RA patients. T cells were stimulated with anti-CD3/CD28 and co-treated with verteporfin (C1) (1 or 5 μM) for 3 days. Means ± SD are shown. (B) The inhibition (%) of IL-17A by the 1 μM verteporfin (C1) treatment in SLE or RA patients was compared to that of healthy controls (HC). Means ± SEM of are shown. HC, healthy controls; SLE, systemic lupus erythematosus; RA, rheumatoid arthritis.

Take verteporfin: the “GLK signaling in cell lines (NF-κB-driven luciferase activity)” value in experiment [1] is given as “efficiently inhibited”. In the experiment with murine primary T cells (5 or 10 μM for 3 d), the “TCR-induced IL-17A production” value is “drastically abolished”; the “TCR-induced IL-17B, IL-17E, and IL-17F levels” value was “not significantly decreased”; the “TCR-induced TNF-α levels” value was “slightly but not significantly reduced”. In the experiment with murine primary T cells (high-dose 10 μM for 3 d), the “TCR-induced IFN-γ levels” value is listed as “significantly inhibited”. Besides, the “inhibition of IL-17A” value in experiment [2] (T cells of healthy controls) was around 48%. Moreover, in experiment [2] (T cells of patients with SLE or RA), the “inhibition of IL-17A” value is given as around 75%. Besides, the IL-17A production result in experiment [2] (T cells from patients with SLE and RA and healthy controls, 1 or 5 μM for 3 d) was “significantly reduced”. The “production of IL-17A, IL-6, IL-10, TNF-α, and IFN-γ” value in experiment [2] (high-dose 5 μM, T cells of healthy controls and patients with SLE) is on record as “significantly inhibited”. The “production of IL-6, IL-10, TNF-α, and IFN-γ” value in experiment [2] (low-dose 1 μM, T cells from patients with SLE or RA) was “modestly inhibited”.
